In publication PMC5647335, “Controlling the bioactivity of a peptide hormone in vivo by reversible self-assembly” (Nature Communications, 2017):

System: CHO-hGLP-1R cells
Assay type: cell-based, Chinese hamster
Conditions: 48 h treatment, resazurin 5 h, fluorescence 590 nm; Oxm concentrations up to 1000-fold above the EC50; three independent experiments
Experimental: CHO-hGLP-1R cells in growth medium (DMEM, 10%FBS Sigma-Aldrich) were plated at 10,000 cells per well in 96-well black clear-bottom poly-D-lysine-coated microtiter plates (Corning, USA). […] Fluorescence emission was measured at 590 nm (560 nm excitation).

Structure (SMILES) | in vitro cytotoxicity (cell viability)
Cn1cc(C2=C(c3cn(CCCSC(=N)N)c4ccccc34)C(=O)NC2=O)c2ccccc21 [Ro-318220] | expected curves of concentration vs. loss of cell viability
CN[C@@H]1C[C@H]2O[C@@](C)([C@@H]1OC)n1c3ccccc3c3c4c(c5c6ccccc6n2c5c31)C(=O)NC4 [staurosporine] | expected curves of concentration vs. loss of cell viability
